“And” between values parts separate entries of the source, which are not always exact repeats. Equal values may be shown once.
What was measured:
Settings in all cases: incubation time: 72 h
CAL-148 [1] = assay: normalised viability (% of control), CellTiter-Blue; higher = more viable cells (about 100 = DMSO control)
Procedure: (§1)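 DSRT, CellTiter-Blue viability, 72 h incubation. Signal is normalised to DMSO and benzethonium chloride controls. Value is the normalised response at dose 7.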

DU-4475 = assay: as above
Procedure: as §1

CAL-85-1 [2] = assay: as above
Procedure: as §1

HDQ-P1 [3] = assay: as above
Procedure: as §1

CAL-51 [4] = assay: as above
Procedure: as §1

MDA-MB-453 [5] = assay: as above
Procedure: as §1

CAL-148 [6] = assay: normalised response (% of control), CellTiter-Glo; higher = more viable cells (100 = DMSO, 0 = benzethonium chloride kill control)
How it was run: (§2)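 Plates were normalised with 0.1 % DMSO as 100 and a positive kill control as 0. Breast cancer cell lines in 20 µl suspension had been seeded into 384-well plates with compound at 5 concentrations in 10-fold steps over a compound-specific 10,000-fold range, incubated 72 h, and read for CellTox Green fluorescence (485/520 nm) followed by CellTiter-Glo luminescence. Each value is the normalised signal at a single concentration.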

HCC1143 = assay: as above
How it was run: as §2

MDA-MB-468 = assay: as above
How it was run: as §2

Hs578T = assay: as above
How it was run: as §2

CAL-120 = assay: as above
How it was run: as §2

MFM-223 = assay: as above
How it was run: as §2

CAL-85-1 [7] = assay: as above
How it was run: as §2

HCC1599 = assay: as above
How it was run: as §2

HDQ-P1 [8] = assay: as above
How it was run: as §2

CAL-51 [9] = assay: as above
How it was run: as §2

MDA-MB-231 = assay: as above
How it was run: as §2

MCF-10A = assay: as above
How it was run: as §2

MDA-MB-453 [10] = assay: as above
How it was run: as §2

MDA-MB-436 = assay: as above
How it was run: as §2

SMILES | normalised viability (CAL-148 [1]) | normalised viability (DU-4475) | normalised viability (CAL-85-1 [2]) | normalised viability (HDQ-P1 [3]) | normalised viability (CAL-51 [4]) | normalised viability (MDA-MB-453 [5]) | normalised response (CAL-148 [6]) | normalised response (HCC1143) | normalised response (MDA-MB-468) | normalised response (Hs578T) | normalised response (CAL-120) | normalised response (MFM-223) | normalised response (CAL-85-1 [7]) | normalised response (HCC1599) | normalised response (HDQ-P1 [8]) | normalised response (CAL-51 [9]) | normalised response (MDA-MB-231) | normalised response (MCF-10A) | normalised response (MDA-MB-453 [10]) | normalised response (MDA-MB-436)
CCc1c2c(nc3ccc(OC(=O)N4CCC(N5CCCCC5)CC4)cc13)-c1cc3c(c(=O)n1C2)COC(=O)[C@]3(O)CC [Irinotecan] (1000 nM) | 61.5% and 70.9% | 73.1% and 78.7% | 88.7% and 94.5% | 98.8% and 93.5% | 80.6% and 99.8% | 76% and 99.8% | 66.3% | 88.1% | 82% | 101% | 83.7% | 104% | 104% | 109% | 95.5% | 96.6% | 98.1% | 88.3% | 152% | 64.5%
Oc1ccc2c(c1)CC[C@H](c1ccccc1)[C@@H]2c1ccc(OCCN2CCCC2)cc1 [Lasofoxifene] (100 nM) | 107% | 106% | 87.2% | 109% | 99.7% | 80.7% | 105% | 106% | 107% | 106% | 107% | 105% | 97.6% | 107% | 99.4% | 103% | 107% | 114% | 104% | 107%
Cc1ccc(NC(=O)c2ccc(CN3CCN(C)CC3)cc2)cc1Nc1nc(-c2cccnc2)cs1 [Masitinib] (1000 nM) | 87.1% | 120% | 94.3% | 105% | 104% | 89.6% | 103% | 99% | 89.9% | 102% | 95.5% | 103% | 111% | 106% | 98.8% | 80.5% | 105% | 105% | 89.7% | 105%
O=C(Nc1cccnc1)N1CCC(Cc2cccc(Oc3ccc(C(F)(F)F)cn3)c2)CC1 [PF-3845] (1000 nM) | 101% | 81.3% | 83% | 144% | 101% | 86% | 99.4% | 106% | 95.1% | 104% | 99% | 109% | 95% | 104% | 98.1% | 98.3% | 106% | 111% | 100% | 104%
Cc1[nH]c2ccccc2c1CCNCc1ccc(/C=C/C(=O)NO)cc1 [Panobinostat] (100 nM) | 5.94% | 3.38% | 15.6% | 32.3% | 25.6% | 2.59% | 3.76% | 26.3% | 28.2% | 27.4% | 41.5% | 35.2% | 25.9% | 24.2% | 62.3% | 24.6% | 10.2% | 49.1% | 3.15% | 55%
COCC1(CO)C(=O)C2CCN1CC2 (configuration not stated) [Prima-1 Met] (1000 nM) | 102% | 108% | 90.9% | 106% | 102% | 80.5% | 101% | 105% | 105% | 101% | 99.3% | 103% | 105% | 106% | 96.3% | 108% | 104% | 97.8% | 109% | 106%
CNC(=O)c1cc(Oc2ccc(NC(=O)Nc3ccc(Cl)c(C(F)(F)F)c3)c(F)c2)ccn1 [Regorafenib] (1000 nM) | 107% | 97.6% | 78.6% | 98.3% | 90.5% | 87% | 99.1% | 93.5% | 105% | 93.9% | 94.9% | 73.4% | 109% | 102% | 90.9% | 65.6% | 99% | 90.6% | 97.2% | 101%
CO[C@H]1C[C@@H]2CC[C@@H](C)[C@@](O)(O2)C(=O)C(=O)N2CCCC[C@H]2C(=O)O[C@H]([C@H](C)C[C@@H]2CC[C@@H](OP(C)(C)=O)[C@H](OC)C2)CC(=O)[C@H](C)/C=C(\C)[C@@H](O)[C@@H](OC)C(=O)[C@H](C)C[C@H](C)/C=C/C=C/C=C/1C [Ridaforolimus] (100 nM) | 37% | 53.7% | 52.5% | 76.6% | 39.4% | 24.1% |  |  |  |  |  |  |  |  |  |  |  |  |  | 
c1ccc2c(CCNc3ccc(Nc4ccncc4)cc3)c[nH]c2c1 [Serdemetan] (1000 nM) | 77.3% | 104% | 75.9% | 96.4% | 102% | 85.2% | 71.1% | 83.8% | 77.8% | 104% | 93.7% | 97% | 125% | 114% | 90% | 24.4% | 82.4% | 86.2% | 110% | 89.5%
CN(C)CCOc1ccc(/C(=C(/CCCl)c2ccccc2)c2ccccc2)cc1 [Toremifene] (1000 nM) | 108% | 97.4% | 99.7% | 124% | 100% | 106% | 99.2% | 96.3% | 97.6% | 107% | 98.5% | 101% | 99.2% | 102% | 96.6% | 108% | 92.6% | 92.3% | 106% | 104%
COc1cc2/c(=N/c3ccc(Br)cc3F)nc[nH]c2cc1OCC1CCN(C)CC1 [Vandetanib] (1000 nM) | 89.2% | 105% | 71% | 48.7% | 82.4% | 87.9% |  |  |  |  |  |  |  |  |  |  |  |  |  | 
